Assay results reported in PMC6377964 (Evidence-based Complementary and Alternative Medicine : eCAM, 2019).
Several values for one entry are separate records, joined by “and”; a condition that tells them apart may be missing. Equal entries are not always repeated. Where two headings read alike, the source gives them in different places.

Columns and labels:
[1] = Kinetic profiles of administered and generated stereoisomers in brain, CSF and plasma of rats after oral administration; assay type: in vivo, male Sprague-Dawley (SD) rats; settings: for AUC0-180 min, brain / Cmax, brain: rat brain; for AUC(0-t) / Cmax / half-life / Kp / Tmax: male, Sprague-Dawley, po; for half-life: read-out: t 1/2, plasma; for Kp / Tmax: rat; for Tmax: plasma
Source text: Male Sprague-Dawley (SD) rats were provided by the Laboratory Animal Service Center of The Chinese University of Hong Kong, Hong Kong, China. Animals were housed in cages during the study period under standard conditions of temperature, humidity, and light. All animal experiments were approved by the Animal Ethics Committee of The Chinese University of Hong Kong.
One day before the experiment, the male SD rats (160-200 g) were fasted overnight with free access to water. […] The dosage was the same as used in the previous pharmacodynamics studies. […] The rats were exsanguinated by cardiac puncture under anesthesia, followed by collecting their CSF (about 100 μL) through a single puncture in the cisterna magna. Plasma was obtained by centrifugation of blood at 6,000 × g for 8 min at 4°C. After blood collection, the animals were perfused transcardially with normal saline until total blood volume was removed. Then, the whole brain was promptly collected, and the surface water was blotted dry with Kimwipes (Kimberly-Clark™). Blood vessels and meninges were carefully removed with forceps and the brain was weighted. All samples were stored at −20°C until analysis.
Brain homogenate was freshly prepared by homogenizing brain tissues in normal saline (1:2, w/v). Homogenization was conducted in an ice bath using the IKA T10 basic ULTRA-TURRAX Homogenizer for 20–30 s.
The biological samples including brain homogenate, CSF, and plasma (50 μL each) were deproteinized by adding 150 μL of acetonitrile (containing 20 ng/mL IS). After vortex mixing for 1 min, the mixture was centrifuged (20,000 × g) for 10 min at 4°C. After centrifugation, an aliquot (5 μL) of supernatant was subjected to the LC-MS/MS analysis.
The chromatographic separation was achieved on ZORBAX Eclipse Plus C18 column (2.1 × 100 mm, 1.8 μm, Agilent) maintained at 40°C temperature at a flow rate of 0.3 mL/min. A gradient mobile phase consisting of 0.1% formic acid in acetonitrile (A) and 0.1% formic acid in water (B) was eluted as follows: 0–1 min, A, 15–20%; 1–5 min, A, 20–25%; 5–7 min, A, 25–95%; 7–10 min, A held at 95% and returned to the initial condition (acetonitrile-water ratio 15 : 85) for a 3 min equilibration. The temperature of the auto-sampler was kept at 4°C.
All the data were processed using Agilent MassHunter Workstation Software Quantitative Analysis Version B.07.00/Build 7.0.457.0 (Agilent).
Kinetic parameters were calculated using the WinNonlin software (Version 4.0, Pharsight Corp, Mountain View, CA, US) employing a noncompartmental model approach. Epimerization ratio was calculated by AUC(generated stereoisomer)/(AUC(generated stereoisomer) + AUC(administered stereoisomer)) × 100%. The brain-to-plasma partition coefficient (Kp, Brain) was calculated by AUCBrain/AUCPlasma, and the CSF-to-plasma partition coefficient (Kp, CSF) was calculated by AUCCSF/AUCPlasma.
All the data in the study were expressed as mean ± SEM. Statistical analyses were performed using GraphPad Prism 6.0 (GraphPad Software Inc, San Diego, CA, US) using two tailed unpaired t-test for two groups comparison. Statistical significance was set at p value less than 0.05.

[2] = tested on: EphA4; design: method as in PMID 24958880; settings: cited from earlier work
[3] = tested on: rats with Aβ25-35-induced cognitive deficits; settings: oral 20 or 40 mg/kg for 3 weeks; cited from earlier work
[4] = mainly mediated by CYP3A4; cited from earlier work
[5] = design: method as in earlier work; settings: cited from earlier work
[6] = orally administered; cited from earlier work
[7] = tested on: HT22 cell; settings: cited from earlier work
[8] = tested on: P-gp efflux transporter; settings: cited from earlier work
[9] = tested on: APP/PS1 transgenic mice; design: method as in PMID 24958880; settings: oral 50 mg/kg/day for 3-4 weeks; cited from earlier work
[10] = administered stereoisomer, 20 mg/kg p.o., rat CSF
[11] = administered stereoisomer, 20 mg/kg p.o.
[12] = generated stereoisomer after 20 mg/kg p.o. of the other stereoisomer
[13] = administered stereoisomer, 20 mg/kg p.o. of the same compound, rat plasma, mean ± SEM, read-out: AUC0-180 min, plasma (converted)
[14] = administered stereoisomer, 20 mg/kg p.o., rat CSF, read-out: AUC0-180 min, CSF (converted)
[15] = administered stereoisomer, 20 mg/kg p.o., rat plasma
[16] = CSF (relative to plasma), administered stereoisomer, 20 mg/kg p.o., AUCCSF/AUCPlasma, read-out: Kp,CSF (CSF-to-plasma partition coefficient)
[17] = brain (relative to plasma), administered stereoisomer, 20 mg/kg p.o., AUCBrain/AUCPlasma, read-out: Kp,Brain (brain-to-plasma partition coefficient)
[18] = 20 mg/kg, administered stereoisomer, 20 mg/kg p.o., rat plasma

Row | SMILES | Cmax, CSF [1, 10] | Cmax, brain [1, 11] | AUC0-180 min, brain [1, 12] | AUC(0-t) [1, 13] [ng·h/mL] | AUC(0-t) [1, 14] [ng·h/mL] | Cmax [1, 15] [ng/mL] | half-life [1, 15] [h] | Kp [1, 16] | Kp [1, 17] | Tmax [1, 18] [h] | Inhibition of EphA4 [2] | pKa [5] | Bioavailability [6] [%] | Neuroprotective activity against glutamate-induced HT22 cell injury [7] | other results
1 | CC[C@H]1CN2CC[C@@]3(C(=O)Nc4ccccc43)[C@@H]2C[C@@H]1/C(=C\OC)C(=O)OC [IRN, Isorhynchophylline] | 2.14 ± 0.34 ng/mL | 7.35 ± 0.74 ng/g | 140.76 ± 1.50 ng·min/g | 41.4 | 3.4 | 31.3 ± 1.59 | 1.07 ± 0.0532 | 0.0821 ± 0.005 | 0.253 ± 0.0187 | ≤ 0.5 | not | 5.20 | 3.3 ± 0.8 | significant neuroprotective activity | AUC0-180 min, brain [1, 11]: 627.37 ± 43.31 ng·min/g; Administered IRN metabolically converted to RN ([1]; after oral administration of IRN 20 mg/kg, rats): at least 47%; Cognitive deficits induced by Aβ25-35 [3]: ameliorated cognitive deficits; Metabolism in rat liver microsomes [4]: much more favorable to be metabolized than RN
2 | CC[C@H]1CN2CC[C@]3(C(=O)Nc4ccccc43)[C@@H]2C[C@@H]1/C(=C\OC)C(=O)OC [RN, rhynchophylline] | 7.39 ± 0.17^∗∗∗ ng/mL | 16.96 ± 1.92^∗∗ ng/g | 296.63 ± 9.49^∗∗ ng·min/g | 273 | 12.4 | 191 ± 6.34 | 2.16 ± 0.155 | 0.0453 ± 0.0002 | 0.0967 ± 0.0063 | ≤ 0.5 | potent inhibitor | 6.32 | 25.9 ± 8.7 | weak effect | Membrane permeability, effect of P-gp efflux [8]: affected by P-gp efflux transporter; Long-term potentiation in the hippocampus [9]: restored the impaired long-term potentiation; AUC0-180 min, brain ([1]; administered stereoisomer, 20 mg/kg p.o., 20 mg/kg): 1587.03 ± 127.82 ng·min/g and 1587.03 ± 127.82^∗∗ ng·min/g
